Assay results from the NIST ThermoML archive (doi:10.1016/j.jct.2018.11.011).
± gives the expanded uncertainty stated by the source.

Experiment: Molar enthalpy of transition or fusion
Conditions: Crystal; DSC

Molar enthalpy of transition or fusion: 6.31 ± 0.263 kcal/mol
SMILES: O=C([O][Sb]([c]1ccccc1)([c]1ccccc1)([c]1ccccc1)[c]1ccccc1)c1ccccc1 [tetraphenylantimony benzoate]
